# From patent US11174250B2, “Substituted carboxamides as inhibitors of WDR5 protein-protein binding” (PROPELLON THERAPEUTICS INC., priority 2016, dated 2021)
# Where two headings read alike, the source gives them in different places.
# Biological target: WDR5 protein (Homo sapiens (Human), UniProt P61964)
# Assay: Surface Plasmon Resonance (SPR) assay
# Format: binding
# Conditions: for residence time: τ=1/koff, read-out: Residence Time (t, min)
# [1] = SPR, Table 1, read-out: WDR5 binding affinity (KD)
# [2] = SPR, Table 2, read-out: WDR5 binding affinity SPR (KD)
# [3] = Table 4, effect of Fluoro-substitution, read-out: KD (SPR)
# Method: Exemplary compounds of the application were dissolved in 100% DMSO at 10 mM, assayed fresh, and then stored at −20° C. for repeat studies and other experiments. Full length WDR5 with an N-terminal His tag and C-terminal AviTag (Avidity Inc.) was expressed in E. coli with coexpression of BirA to biotin label the protein in vivo. Purification was via Ni-NTA. The purified WDR5 protein has a molecular weight of 41976 Da.
# SPR studies were performed using a Biacore™ T200 instrument (GE Health Sciences Inc.). Biotinylated WDR5 protein (approximately 3000RU) was stably captured to streptavidin coupled SA chips according to the manufacture's protocol (GE Health Sciences Inc.). The running buffer used was HBS-EP (20 mM Hepes pH 7.4, 150 mM NaCl, 3 mM EDTA, 0.05% P-20) plus 5% DMSO with a flow rate of 40p1/min. For SPR analysis, 5 different concentrations of each exemplary compound of the application were sprayed into 96 or 384 well plates using an HP D300 digital dispenser. […] Curve fitting and KD calculations were performed with the Biacore T200 Evaluation software (GE Health Sciences Inc).
structure (smiles),measurement,setting,value
"C[C@@H]1CN(c2ccc(-c3ccc(C(N)=O)cc3F)cc2NC(=O)c2c[nH]c(=O)cc2C(F)(F)F)C[C@H](C)N1C [Example 117, N-(4′-carbamoyl-2′-fluoro-4-((3S,5R)-3,4,5-trimethylpiperazin-1-yl)-[1,1′-biphenyl]-3-yl)-6-oxo-4-(trifluoromethyl)-1,6-dihydropyridine-3-carboxamide]",Kd,[1],1.7 nM
same,Kd,[2],1.6 nM
same,residence time,SPR,7.9 min
"COC(=O)c1ccc(F)c(-c2ccc(N3CCN(C)CC3)c(NC(=O)c3c[nH]c(=O)cc3C(F)(F)F)c2)c1 [Example 14, methyl 6-fluoro-4′-(4-methylpiperazin-1-yl)-3′-(6-oxo-4-(trifluoromethyl)-1,6-dihydropyridine-3-carboxamido)-[1,1′-biphenyl]-3-carboxylate]",Kd,[1],26 nM
same,Kd,[2],26 nM
same,residence time,SPR,1.36 min
CN1CCN(c2ccc(-c3cccc(CN4CCC(F)CC4)c3)cc2NC(=O)c2c[nH]c(=O)cc2C(F)(F)F)CC1 [reference compound],τ,"Table 4, effect of Fluoro-substitution",0.91 min
same,Kd,[3],30 nM
"CN1CCN(c2ccc(-c3cc(OCC4CC4)c(F)cc3F)cc2NC(=O)c2c[nH]c(=O)cc2C(F)(F)F)CC1 [Example 21, N-(5′-(cyclopropylmethoxy)-2′,4′-difluoro-4-(4-methylpiperazin-1-yl)-[1,1′-biphenyl]-3-yl)-6-oxo-4-(trifluoromethyl)-1,6-dihydropyridine-3-carboxamide]",Kd,[1],19 nM
same,Kd,[2],19 nM
same,residence time,SPR,1.75 min
"COc1cccc(C(=O)Nc2cc(-c3cc(CN4CCOCC4)ccc3F)ccc2N2CCN(C)CC2)c1 [Example 10, N-(2′-fluoro-4-(4-methylpiperazin-1-yl)-5′-(morpholinomethyl)-[1,1′-biphenyl]-3-yl)-3-methoxybenzamide]",Kd,[1],1000 nM
same,Kd,[2],1000 nM
CN1CCN(c2ccc(-c3cc(C(=O)NC4CCCCC4)ccc3F)cc2NC(=O)c2c[nH]c(=O)cc2C(F)(F)F)CC1 [drawing 291],Kd,[3],6 nM
"CN1CC2CN(c3ccc(-c4cc(CN5CCOCC5)ccc4F)cc3NC(=O)c3c[nH]c(=O)cc3C(F)(F)F)CC2C1 (centres unmarked) [Example 100, N-(2′-fluoro-4-(5-methylhexahydropyrrolo[3,4-c]pyrrol-2(1H)-yl)-5′-(morpholinomethyl)-[1,1′-biphenyl]-3-yl)-6-oxo-4-(trifluoromethyl)-1,6-dihydropyridine-3-carboxamide]",Kd,[1],5930 nM
same,Kd,[2],5930 nM
"C[C@H]1CN(C)CCN1c1ccc(-c2cc(CN3CCOCC3)ccc2F)cc1NC(=O)c1c[nH]c(=O)cc1C(F)(F)F [Example 104, (S)—N-(4-(2,4-dimethylpiperazin-1-yl)-2′-fluoro-5′-(morpholinomethyl)-[1,1′-biphenyl]-3-yl)-6-oxo-4-(trifluoromethyl)-1,6-dihydropyridine-3-carboxamide]",Kd,[1],4000 nM
same,Kd,[2],4000 nM
"C[C@@H]1CN(c2ccc(-c3cc(C(N)=O)c(F)cc3F)cc2NC(=O)c2c[nH]c(=O)cc2C(F)(F)F)C[C@H](C)N1C [Example 121, N-(5′-carbamoyl-2′,4′-difluoro-4-((3S,5R)-3,4,5-trimethylpiperazin-1-yl)-[1,1′-biphenyl]-3-yl)-6-oxo-4-(trifluoromethyl)-1,6-dihydropyridine-3-carboxamide]",Kd,[1],9.2 nM
same,Kd,[2],9 nM
same,residence time,SPR,2.3 min
"CN1CCCN(c2ccc(-c3cc(CN4CCOCC4)ccc3F)cc2NC(=O)c2cn(C)c(=O)cc2C(F)(F)F)CC1 [Example 89, N-(2′-fluoro-4-(4-methyl-1,4-diazepan-1-yl)-5′-(morpholinomethyl)-[1,1′-biphenyl]-3-yl)-1-methyl-6-oxo-4-(trifluoromethyl)-1,6-dihydropyridine-3-carboxamide]",Kd,[1],235 nM
same,Kd,[2],235 nM
same,residence time,SPR,0.07 min
"C[C@@H]1CN(c2ccc(-c3ccc(C(=O)NC(C)(C)CC(C)(C)C)c(F)c3F)cc2NC(=O)c2c[nH]c(=O)cc2C(F)(F)F)C[C@H](C)N1C [Example 122, N-(2′,3′-difluoro-4′-((2,4,4-trimethylpentan-2-yl)carbamoyl)-4-((3S,5R)-3,4,5-trimethylpiperazin-1-yl)-[1,1′-biphenyl]-3-yl)-6-oxo-4-(trifluoromethyl)-1,6-dihydropyridine-3-carboxamide]",Kd,[1],7.6 nM
same,Kd,[2],8 nM
same,residence time,SPR,6.7 min
"COc1cc(C(F)(F)F)c(C(=O)Nc2cc(-c3cc(CN(C)[C@H]4CCOC4)ccc3F)ccc2N2CCN(C)CC2)cn1 [Example 58, (S)—N-(2′-fluoro-5′-((methyl(tetrahydrofuran-3-yl)amino)methyl)-4-(4-methylpiperazin-1-yl)-[1,1′-biphenyl]-3-yl)-6-methoxy-4-(trifluoromethyl)nicotinamide]",Kd,[1],> 200 nM
same,Kd,[2],> 200 nM
"C[C@@H]1CN(c2ccc(-c3ccc(C(N)=O)c(F)c3F)cc2NC(=O)c2c[nH]c(=O)cc2C(F)(F)F)C[C@H](C)N1C [Example 123, N-(4′-carbamoyl-2′,3′-difluoro-4-((3S,5R)-3,4,5-trimethylpiperazin-1-yl)-[1,1′-biphenyl]-3-yl)-6-oxo-4-(trifluoromethyl)-1,6-dihydropyridine-3-carboxamide]",Kd,[1],3.6 nM
same,Kd,[2],4 nM
same,residence time,SPR,4.2 min
"CN1CCN(c2ccc(-c3cc(CN4CCOCC4)ccc3F)cc2NC(=O)c2nc3ccccc3[nH]2)CC1 [Example 103, N-(2′-fluoro-4-(4-methylpiperazin-1-yl)-5′-(morpholinomethyl)-[1,1′-biphenyl]-3-yl)-1H-benzo[d]imidazole-2-carboxamide]",Kd,[1],> 200 nM
same,Kd,[2],> 200 nM
"Cc1cccc(C(=O)Nc2cc(-c3cc(CN4CCOCC4)ccc3F)ccc2N2CCN(C)CC2)c1 [Example 24, N-(2′-fluoro-4-(4-methylpiperazin-1-yl)-5′-(morpholinomethyl)-[1,1′-biphenyl]-3-yl)-3-methylbenzamide]",Kd,[1],5030 nM
same,Kd,[2],5030 nM
"C[C@@H]1CN(c2ccc(-c3cc(C(=O)NC(C)(C)CC(C)(C)C)c(F)cc3F)cc2NC(=O)c2c[nH]c(=O)cc2C(F)(F)F)C[C@H](C)N1C [Example 120, N-(2′,4′-difluoro-5′-((2,4,4-trimethylpentan-2-yl)carbamoyl)-4-((3S,5R)-3,4,5-trimethylpiperazin-1-yl)-[1,1′-biphenyl]-3-yl)-6-oxo-4-(trifluoromethyl)-1,6-dihydropyridine-3-carboxamide]",Kd,[1],6 nM
same,Kd,[2],6 nM
same,residence time,SPR,12.5 min
"C[C@@H]1CN(c2ccc(-c3ccc(F)c(CN(C)C4COC4)c3F)cc2NC(=O)c2c[nH]c(=O)cc2C(F)(F)F)C[C@H](C)N1C [Example 112, N-(2′,4′-difluoro-3′-((methyl(oxetan-3-yl)amino)methyl)-4-((3S,5R)-3,4,5-trimethylpiperazin-1-yl)-[1,1′-biphenyl]-3-yl)-6-oxo-4-(trifluoromethyl)-1,6-dihydropyridine-3-carboxamide]",Kd,[1],23 nM
same,Kd,[2],23 nM
same,residence time,SPR,1.3 min
"O=C(Nc1cc(-c2cc(CN3CCOCC3)ccc2F)ccc1N1CCN(CC(F)(F)F)CC1)c1c[nH]c(=O)cc1C(F)(F)F [Example 97, N-(2′-fluoro-5′-(morpholinomethyl)-4-(4-(2,2,2-trifluoroethyl)piperazin-1-yl)-[,1′-biphenyl]-3-yl)-6-oxo-4-(trifluoromethyl)-1,6-dihydropyridine-3-carboxamide]",Kd,[1],> 200 nM
same,Kd,[2],> 200 nM
"CN1CCN(c2ccc(-c3ccccc3F)cc2NC(=O)c2c[nH]c(=O)cc2C(F)(F)F)CC1 [Example 25, N-(2′-fluoro-4-(4-methylpiperazin-1-yl)-[1,1′-biphenyl]-3-yl)-6-oxo-4-(trifluoromethyl)-1,6-dihydropyridine-3-carboxamide]",Kd,[1],102 nM
same,Kd,[2],102 nM
same,residence time,SPR,0.94 min
"CN1CCN(c2ccc(-c3cc(CN4CCOCC4)ccc3Cl)cc2NC(=O)c2c[nH]c(=O)cc2C(F)(F)F)CC1 [Example 86, N-(2′-chloro-4-(4-methylpiperazin-1-yl)-5′-(morpholinomethyl)-[1,1′-biphenyl]-3-yl)-6-oxo-4-(trifluoromethyl)-1,6-dihydropyridine-3-carboxamide]",Kd,[1],35 nM
same,Kd,[2],34.5 nM
"C[C@@H]1CN(c2ccc(-c3ccc(F)c(CNC4CCCCC4)c3F)cc2NC(=O)c2c[nH]c(=O)cc2C(F)(F)F)C[C@H](C)N1C [Example 83, N-(3′-((cyclohexylamino)methyl)-2′,4′-difluoro-4-((3S,5R)-3,4,5-trimethylpiperazin-1-yl)-[1,1′-biphenyl]-3-yl)-6-oxo-4-(trifluoromethyl)-1,6-dihydropyridine-3-carboxamide]",Kd,[1],10 nM
same,Kd,[2],10.3 nM
same,residence time,SPR,3.24 min
"Cc1c(F)ccc(C(=O)Nc2cc(-c3cc(CN4CCOCC4)ccc3F)ccc2N2CCN(C)CC2)c1Cl [Example 12, 2-chloro-4-fluoro-N-(2′-fluoro-4-(4-methylpiperazin-1-yl)-5′-(morpholinomethyl)-[1,1′-biphenyl]-3-yl)-3-methylbenzamide]",Kd,[1],93 nM
same,Kd,[2],93 nM
same,residence time,SPR,0.6 min
"COc1cc(C(F)(F)F)c(C(=O)Nc2cc(-c3cc(CN4C5COCC4C5)ccc3F)ccc2N2CCN(C)CC2)cn1 [Example 56, N-(5′-(3-oxa-6-azabicyclo[3.1.1]heptan-6-ylmethyl)-2′-fluoro-4-(4-methylpiperazin-1-yl)-[1,1′-biphenyl]-3-yl)-6-methoxy-4-(trifluoromethyl)nicotinamide]",Kd,[1],> 200 nM
same,Kd,[2],> 200 nM
"CN1CCN(c2ccc(-c3cc(CN4CCOCC4)ccc3F)cc2NC(=O)c2cnc(N)cc2C(F)(F)F)CC1 [Example 109, 6-amino-N-(2′-fluoro-4-(4-methylpiperazin-1-yl)-5′-(morpholinomethyl)-[1,1′-biphenyl]-3-yl)-4-(trifluoromethyl)nicotinamide]",Kd,[1],> 200 nM
same,Kd,[2],> 200 nM
"CN1CCN(c2ncc(-c3cc(CNC4CCCCC4)ccc3F)cc2NC(=O)c2c[nH]c(=O)cc2C(F)(F)F)CC1 [Example 85, N-(5-(5-((cyclohexylamino)methyl)-2-fluorophenyl)-2-(4-methylpiperazin-1-yl)pyridin-3-yl)-6-oxo-4-(trifluoromethyl)-1,6-dihydropyridine-3-carboxamide]",Kd,[1],15 nM
same,Kd,[2],14.8 nM
same,residence time,SPR,0.78 min
